Test results reported in PubChem BioAssay (NCI).
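Dose response: 5 concentrations. Exposure: 48 h. Format: 96-well plates. Endpoint: linear interpolation; highest concentration if not reached. The concentration for 50% growth inhibition is given as GI50. TGI marks complete inhibition of growth.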

Experiments:
Test in all cases: DTP human tumour cell line panel, 48 h
MDA-MB-468 breast = test system: MDA-MB-468 breast
786-0 renal = test system: 786-0 renal
A498 renal = test system: A498 renal
A549 NSCLC = test system: A549 NSCLC
ACHN renal = test system: ACHN renal
BT-549 breast = test system: BT-549 breast
CAKI-1 renal = test system: CAKI-1 renal
CCRF-CEM leukemia = test system: CCRF-CEM leukemia
COLO 205 colon = test system: COLO 205 colon
DU-145 prostate = test system: DU-145 prostate
EKVX NSCLC = test system: EKVX NSCLC
HCC-2998 colon = test system: HCC-2998 colon
HCT-116 colon = test system: HCT-116 colon
HCT-15 colon = test system: HCT-15 colon
HL-60(TB) leukemia = test system: HL-60(TB) leukemia
HOP-62 NSCLC = test system: HOP-62 NSCLC
HOP-92 NSCLC = test system: HOP-92 NSCLC
HT29 colon = test system: HT29 colon
IGROV1 ovarian = test system: IGROV1 ovarian
K-562 leukemia = test system: K-562 leukemia
KM12 colon = test system: KM12 colon
LOX IMVI melanoma = test system: LOX IMVI melanoma
M14 melanoma = test system: M14 melanoma
MALME-3M melanoma = test system: MALME-3M melanoma
MCF7 breast = test system: MCF7 breast
MDA-MB-231 breast = test system: MDA-MB-231 breast
MDA-MB-435 = test system: MDA-MB-435
MOLT-4 leukemia = test system: MOLT-4 leukemia
NCI-H226 lung = test system: NCI-H226 lung
NCI-H23 lung = test system: NCI-H23 lung
NCI-H460 lung = test system: NCI-H460 lung
NCI-H522 lung = test system: NCI-H522 lung
OVCAR-3 ovarian = test system: OVCAR-3 ovarian
OVCAR-4 ovarian = test system: OVCAR-4 ovarian
OVCAR-5 ovarian = test system: OVCAR-5 ovarian
OVCAR-8 ovarian = test system: OVCAR-8 ovarian
PC-3 prostate = test system: PC-3 prostate
RPMI-8226 leukemia = test system: RPMI-8226 leukemia
RXF 393 renal = test system: RXF 393 renal
SF-268 CNS = test system: SF-268 CNS
SF-295 CNS = test system: SF-295 CNS
SF-539 CNS = test system: SF-539 CNS
SK-MEL-2 melanoma = test system: SK-MEL-2 melanoma
SK-MEL-28 melanoma = test system: SK-MEL-28 melanoma
SK-MEL-5 melanoma = test system: SK-MEL-5 melanoma
SK-OV-3 ovarian = test system: SK-OV-3 ovarian
SN12C renal = test system: SN12C renal
SNB-19 CNS = test system: SNB-19 CNS
SNB-75 CNS = test system: SNB-75 CNS
SR leukemia = test system: SR leukemia
SW-620 colon = test system: SW-620 colon
T-47D breast = test system: T-47D breast
TK-10 renal = test system: TK-10 renal
U251 CNS = test system: U251 CNS
UACC-257 melanoma = test system: UACC-257 melanoma
UACC-62 melanoma = test system: UACC-62 melanoma
UO-31 renal = test system: UO-31 renal

COC(CCP(=O)(c1ccccc1)c1ccccc1)(C(=O)c1ccccc1)c1ccccc1 (stereo unspecified)
GI50 (MDA-MB-468 breast): 2.05 µM | TGI (MDA-MB-468 breast): 11.7 µM

COc1cc(/C=C/C(=O)c2ccc(S(=O)(=O)NCCNc3nc(N(C)C)nc(N4CCOCC4)n3)cc2)cc(OC)c1OC
GI50 (786-0 renal): 1.89 µM | TGI (786-0 renal): 3.68 µM | GI50 (A498 renal): 14.2 µM | TGI (A498 renal): 27.4 µM | GI50 (A549 NSCLC): 3.55 µM | TGI (A549 NSCLC): 14 µM | GI50 (ACHN renal): 1.78 µM | TGI (ACHN renal): 3.46 µM | GI50 (BT-549 breast): 2.01 µM | TGI (BT-549 breast): 3.73 µM | GI50 (CAKI-1 renal): 10.6 µM | TGI (CAKI-1 renal): 23.3 µM | GI50 (CCRF-CEM leukemia): 2.07 µM | TGI (CCRF-CEM leukemia): 7.25 µM | GI50 (COLO 205 colon): 2.14 µM | TGI (COLO 205 colon): 5.03 µM | GI50 (DU-145 prostate): 3.31 µM | TGI (DU-145 prostate): 11.6 µM | GI50 (EKVX NSCLC): 3.74 µM | TGI (EKVX NSCLC): 19.8 µM | GI50 (HCC-2998 colon): 1.8 µM | TGI (HCC-2998 colon): 3.26 µM | GI50 (HCT-116 colon): 1.56 µM | TGI (HCT-116 colon): 3.04 µM | GI50 (HCT-15 colon): 1.82 µM | TGI (HCT-15 colon): 3.91 µM | GI50 (HL-60(TB) leukemia): 1.97 µM | TGI (HL-60(TB) leukemia): 7.34 µM | GI50 (HOP-62 NSCLC): 2.66 µM | TGI (HOP-62 NSCLC): 8.72 µM | GI50 (HOP-92 NSCLC): 7.27 µM | TGI (HOP-92 NSCLC): 25.7 µM | GI50 (HT29 colon): 1.72 µM | TGI (HT29 colon): 3.19 µM | GI50 (IGROV1 ovarian): 2.6 µM | TGI (IGROV1 ovarian): 7.54 µM | GI50 (K-562 leukemia): 1.46 µM | TGI (K-562 leukemia): > 100 µM | GI50 (KM12 colon): 1.7 µM | TGI (KM12 colon): 3.33 µM | GI50 (LOX IMVI melanoma): 1.64 µM | TGI (LOX IMVI melanoma): 3.07 µM | GI50 (M14 melanoma): 2.18 µM | TGI (M14 melanoma): 6.34 µM | GI50 (MALME-3M melanoma): 1.97 µM | TGI (MALME-3M melanoma): 4.31 µM | GI50 (MCF7 breast): 1.64 µM | TGI (MCF7 breast): 3.98 µM | GI50 (MDA-MB-231 breast): 2.9 µM | TGI (MDA-MB-231 breast): 7.55 µM | GI50 (MDA-MB-435): 1.9 µM | TGI (MDA-MB-435): 4.02 µM | GI50 (MDA-MB-468 breast): 1.69 µM | TGI (MDA-MB-468 breast): 3.36 µM | GI50 (MOLT-4 leukemia): 2.23 µM | TGI (MOLT-4 leukemia): 9.28 µM | GI50 (NCI-H226 lung): 11.4 µM | TGI (NCI-H226 lung): 28.8 µM | GI50 (NCI-H23 lung): 3.09 µM | TGI (NCI-H23 lung): 12.3 µM | GI50 (NCI-H460 lung): 3.17 µM | TGI (NCI-H460 lung): 10.4 µM | GI50 (NCI-H522 lung): 1.66 µM | TGI (NCI-H522 lung): 3.25 µM | GI50 (OVCAR-3 ovarian): 2.02 µM | TGI (OVCAR-3 ovarian): 4.23 µM | GI50 (OVCAR-4 ovarian): 2.21 µM | TGI (OVCAR-4 ovarian): 6.35 µM | GI50 (OVCAR-5 ovarian): 2.83 µM | TGI (OVCAR-5 ovarian): 7.57 µM | GI50 (OVCAR-8 ovarian): 2.3 µM | TGI (OVCAR-8 ovarian): 6.07 µM | GI50 (PC-3 prostate): 3.76 µM | TGI (PC-3 prostate): 13.6 µM | GI50 (RPMI-8226 leukemia): 1.39 µM | TGI (RPMI-8226 leukemia): 4.66 µM | GI50 (RXF 393 renal): 1.22 µM | TGI (RXF 393 renal): 3.24 µM | GI50 (SF-268 CNS): 3.16 µM | TGI (SF-268 CNS): 12.5 µM | GI50 (SF-295 CNS): 3.04 µM | TGI (SF-295 CNS): 11.9 µM | GI50 (SF-539 CNS): 1.81 µM | TGI (SF-539 CNS): 3.37 µM | GI50 (SK-MEL-2 melanoma): 10.7 µM | TGI (SK-MEL-2 melanoma): 22.9 µM | GI50 (SK-MEL-28 melanoma): 2.12 µM | TGI (SK-MEL-28 melanoma): 4.8 µM | GI50 (SK-MEL-5 melanoma): 7.9 µM | TGI (SK-MEL-5 melanoma): 20.7 µM | GI50 (SK-OV-3 ovarian): 14.3 µM | TGI (SK-OV-3 ovarian): 27.4 µM | GI50 (SN12C renal): 2.72 µM | TGI (SN12C renal): 8.71 µM | GI50 (SNB-19 CNS): 4.28 µM | TGI (SNB-19 CNS): 16.2 µM | GI50 (SNB-75 CNS): 1.56 µM | TGI (SNB-75 CNS): 15.5 µM | GI50 (SR leukemia): 1.88 µM | TGI (SR leukemia): 7.84 µM | GI50 (SW-620 colon): 1.9 µM | TGI (SW-620 colon): 3.75 µM | GI50 (T-47D breast): 5.74 µM | TGI (T-47D breast): 23.3 µM | GI50 (TK-10 renal): 13.1 µM | TGI (TK-10 renal): 25.9 µM | GI50 (U251 CNS): 1.54 µM | TGI (U251 CNS): 2.92 µM | GI50 (UACC-257 melanoma): 5.86 µM | TGI (UACC-257 melanoma): 18.5 µM | GI50 (UACC-62 melanoma): 2.14 µM | TGI (UACC-62 melanoma): 5.54 µM | GI50 (UO-31 renal): 1.57 µM | TGI (UO-31 renal): 3.15 µM
